The results in this text go back to patent US9216973B2, “Insecticidal compounds” (Syngenta Participations AG, priority 2008, dated 2015).

Common to all, as to type: in vivo
The subject of experiment [1] is Thrips tabaci (Onion thrips). Kind of experiment: Thrips tabaci sunflower leaf disc spray test. The settings on record: for pest or weed control at 200 ppm: foliar, 168 h, 200 ppm spray on sunflower leaf discs, population of mixed ages, mortality after 7 days; for effect on mortality, feeding behavior, or growth regulation: same protocol, 200 ppm. As for the experimental part:
(§1) This Example illustrates the insecticidal and acaricidal properties of compounds of formula (I). The tests were performed as follows:
(§2) Cotton leaf discs were placed on agar in a 24-well microtiter plate and sprayed with test solutions at an application rate of 200 ppm. After drying, the leaf discs were infested with 5 L1 larvae. The samples were checked for mortality, feeding behavior, and growth regulation 3 days after treatment (DAT). The following compound gave at least 80% control of Spodoptera littoralis: A1, A2, A5, A6, A7, A8, A10, A11, A12, A13, A14, A15, A16, A17, A18, A19, A21, A22, A23, A24, A25, A30, A31, A32, A33, A34, A35, A39, A40, A41 A42, A43, A44, A45, A46, A47, A48, A49, A50, A51, A53, A54, A55, A59, A60, A61, A62. Heliothis virescens (Tobacco budworm): Eggs (0-24 h old) were placed in 24-well microtiter plate on artificial diet and treated with test solutions at an application rate of 200 ppm (concentration in well 18 ppm) by pipetting. After an incubation period of 4 days, samples were checked for egg mortality, larval mortality, and growth regulation. The following compound gave at least 80% control of Heliothis virescens: A1, A2, A3, A4, A5, A6, A7, A8, A10, A11, A12, A13, A14, A15, A16, A18, A19, A21, A22, A24, A25, A30, A31, A32, A33, A34, A35, A37, A38, A39, A40, A42, A43, A44, A45, A46, A47, A48, A49, A50, A51, A55, AA57, A58, A59, A60, A61, A62. Plutella xylostella (Diamond back moth): 24-well microtiter plate (MTP) with artificial diet was treated with test solutions at an application rate of 200 ppm (concentration in well 18 ppm) by pipetting. After drying, the MTP's were infested with L2 larvae (7-12 per well). After an incubation period of 6 days, samples were checked for larval mortality and growth regulation. The following compound gave at least 80% control of Plutella xylostella: A1, A2, A5, A6, A7, A8, A9, A10, A11, A12, A13, A14, A15, A16, A17, A18, A19, A20, A21, A22, A24, A25, A30, A31, A32, A33, A34, A35, A37, A38, A39, A40, A42, A43, A44, A45, A46, A47, A48, A49, A50, A51, A52, A53, A54, A55, A57, A58, A59, A60, A61, A62, B3. Diabrotica balteata (Corn root worm): A 24-well microtiter plate (MTP) with artificial diet was treated with test solutions at an application rate of 200 ppm (concentration in well 18 ppm) by pipetting. After drying, the MTP's were infested with L2 larvae (6-10 per well). After an incubation period of 5 days, samples were checked for larval mortality and growth regulation. The following compound gave at least 80% control of Diabrotica balteata: A1, A2, A5, A6, A7, A10, A11, A12, A13, A14, A15, A16, A17, A18, A19, A21, A22, A24, A25, A30, A31, A32, A33, A34, A35, A38, A39, A40, A42, A43, A44, A45, A46, A47, A48, A49, A50, A59, A60, A61, A62. Thrips tabaci (Onion thrips): Sunflower leaf discs were placed on agar in a 24-well microtiter plate and sprayed with test solutions at an application rate of 200 ppm. After drying, the leaf discs were infested with an […] population of mixed ages. After an incubation period of 7 days, samples were checked for mortality. The following compounds gave at least 80% control of Thrips tabaci: A1, A2, A5, A6, A7, A8, A10, A12, A13, A14, A15, A16, A17, A18, A19, A21, A24, A25, A30, A31, A32, A33, A34, A35, A39, A42, A43, A44, A45, A46, A47, A48, A49, A50, A51, A53, A54, A57, A58, A59, A60, A61, A62. Tetranychus urticae (Two-spotted spider mite): Bean leaf discs on agar in 24-well microtiter plates were sprayed with test solutions at an application rate of 200 ppm. After drying, the leaf discs are infested with mite populations of mixed ages. 8 days later, discs are checked for egg mortality, larval mortality, and adult mortality. The following compound gave at least 80% control of Tetranychus urticae: A1, A2, A4, A5, A6, A7, A8, A10, A11, A12, A13, A14, A15, A16, A17, A18, A19, A20, A21, A22, A30, A31, A32, A33, A34, A35, A39, A40, A41, A42, A43, A44, A45, A46, A47, A48, A49, A50, A51, A53, A54, A55, A57, A59, A60, A61, A62.

The test system of experiment [2] is Heliothis virescens (Tobacco budworm). Kind of experiment: Heliothis virescens egg test on artificial diet. The following applies: for pest or weed control at 200 ppm: 96 h, 200 ppm (concentration in well 18 ppm), eggs 0-24 h old on artificial diet, egg mortality, larval mortality, growth regulation after 4 days, read-out: control of Heliothis virescens; for effect on mortality, feeding behavior, or growth regulation: same protocol, 200 ppm. As for the experimental part: as §1, §2

Experiment [3] relates to Tetranychus urticae (Two-spotted spider mite). Briefly: Tetranychus urticae bean leaf disc spray test. The following applies: for pest or weed control at 200 ppm: foliar, 192 h, 200 ppm spray on bean leaf discs, mite populations of mixed ages, egg, larval and adult mortality 8 days later, read-out: control of Tetranychus urticae; for effect on mortality, feeding behavior, or growth regulation: same protocol, 200 ppm. As for the experimental part:
as §1, §2

SMILES strings stand for the structures.

As for `CC1(NC(=O)c2ccc(C3=NOC(c4cc(Cl)cc(Cl)c4)(C(F)(F)F)C3)c3ccccc23)CSC1` (stereo not drawn) [A1], the pest or weed control at 200 ppm in experiment [1], in experiment [2] and in experiment [3] was at least 80% in each case.
Regarding `O=C(NC1CSC1)c1ccc(C2=NOC(c3cc(Cl)cc(Cl)c3)(C(F)(F)F)C2)c2ccccc12` (stereo not drawn) [A2], the pest or weed control at 200 ppm in experiment [1], in experiment [2] and in experiment [3] was at least 80% throughout.
With `Cc1cc(C2=NOC(c3cc(Cl)cc(Cl)c3)(C(F)(F)F)C2Br)ccc1C(=O)NC1(C)CSC1` (stereo not drawn) [A5], the pest or weed control at 200 ppm in experiment [1], in experiment [2] and in experiment [3] was at least 80% each time.
With `Cc1cc(C2=NOC(c3cc(Cl)cc(Cl)c3)(C(F)(F)F)C2Br)ccc1C(=O)NC1CSC1` (stereo not drawn) [A6], the pest or weed control at 200 ppm in experiment [1], in experiment [2] and in experiment [3] was at least 80% throughout.
Consider `Cc1cc(C2=NOC(c3cc(Cl)cc(Cl)c3)(C(F)(F)F)C2Br)ccc1C(=O)NC1C[S+]([O-])C1` (stereo not drawn) [A7], for which the pest or weed control at 200 ppm in experiment [1], in experiment [2] and in experiment [3] was at least 80% each time.
Regarding `Cc1cc(N2CC(c3cc(Cl)cc(Cl)c3)(C(F)(F)F)OC2=O)ccc1C(=O)NC1C[S+]([O-])C1` (stereo not drawn) [A10], the pest or weed control at 200 ppm in experiment [1], in experiment [2] and in experiment [3] was at least 80% in each case.
As to `Cc1cc(N2CC(c3cc(Cl)cc(Cl)c3)(C(F)(F)F)OC2=O)ccc1C(=O)NC1CSC1` (stereo not drawn) [A11], the pest or weed control at 200 ppm in experiment [2] and in experiment [3] was at least 80% each time.
For `Cc1cc(C2=NN(C)C(c3cc(Cl)cc(Cl)c3)(C(F)(F)F)C2)ccc1C(=O)NC1(C)CSC1` (stereo not drawn) [A12], the pest or weed control at 200 ppm in experiment [1], in experiment [2] and in experiment [3] was at least 80% throughout.
Take `Cc1cc(C2=NN(C)C(c3cc(Cl)cc(Cl)c3)(C(F)(F)F)C2)ccc1C(=O)NC1C[S+]([O-])C1` (stereo not drawn) [A13]: the pest or weed control at 200 ppm in experiment [1], in experiment [2] and in experiment [3] was at least 80% in each case.
Take `Cc1cc(C2=NN(C)C(c3cc(Cl)cc(Cl)c3)(C(F)(F)F)C2)ccc1C(=O)NC1CSC1` (stereo not drawn) [A14]: the pest or weed control at 200 ppm in experiment [1], in experiment [2] and in experiment [3] was at least 80% each time.
For `O=C(NC1CS(=O)(=O)C1)c1ccc(C2=NOC(c3cc(Cl)cc(Cl)c3)(C(F)(F)F)C2)c2ccccc12` (stereo not drawn) [A15], the pest or weed control at 200 ppm in experiment [1], in experiment [2] and in experiment [3] was at least 80% each time.
Take `O=C(NC1C[S+]([O-])C1)c1ccc(C2=NOC(c3cc(Cl)cc(Cl)c3)(C(F)(F)F)C2)c2ccccc12` (stereo not drawn) [A16]: the pest or weed control at 200 ppm in experiment [1], in experiment [2] and in experiment [3] was at least 80% in each case.
With `Cc1cc(C2=NOC(c3cc(Cl)cc(Cl)c3)(C(F)(F)F)O2)ccc1C(=O)NC1CSC1` (stereo not drawn) [A17], the pest or weed control at 200 ppm in experiment [1] and in experiment [3] was at least 80% throughout.
On to `Cc1cc(C2CC(c3cc(Cl)cc(Cl)c3)(C(F)(F)F)ON2C)ccc1C(=O)NC1C[S+]([O-])C1` (stereo not drawn) [A18], for which the pest or weed control at 200 ppm in experiment [1], in experiment [2] and in experiment [3] was at least 80% in each case.
For `Cc1cc(C2CC(c3cc(Cl)cc(Cl)c3)(C(F)(F)F)ON2C)ccc1C(=O)NC1CS(=O)(=O)C1` (stereo not drawn) [A19], the pest or weed control at 200 ppm in experiment [1], in experiment [2] and in experiment [3] was at least 80% throughout.
For the compound `Cc1cc(C2CC(c3cc(Cl)cc(Cl)c3)(C(F)(F)F)ON2C)ccc1C(=O)NC1CSC1` (stereo not drawn) [A21], the pest or weed control at 200 ppm in experiment [1], in experiment [2] and in experiment [3] was at least 80% in each case.
As to `O=C(NC1CS(=O)(=O)C1)c1ccc(C2=NOC(c3cc(Cl)cc(Cl)c3)(C(F)(F)F)C2)c2nsnc12` (stereo not drawn) [A22], the pest or weed control at 200 ppm in experiment [2] and in experiment [3] was at least 80% each time.
For `Cc1nc2c(C3=NOC(c4cc(Cl)cc(Cl)c4)(C(F)(F)F)C3)ccc(C(=O)NC3CS(=O)(=O)C3)c2o1` (stereo not drawn) [A26], the “effect on mortality, feeding behavior, or growth regulation” value (“effect on mortality, feeding behavior” for short) in experiment [1], in experiment [2] and in experiment [3] was “little or no effect” in each case.
As for `Cc1nc2c(C3=NOC(c4cc(Cl)cc(Cl)c4)(C(F)(F)F)C3)ccc(C(=O)NC3(C)CSC3)c2o1` (stereo not drawn) [A27], the “effect on mortality, feeding behavior” value in experiment [1], in experiment [2] and in experiment [3] was “little or no effect” in each case.
Take `Cc1nc2c(C3=NOC(c4cc(Cl)cc(Cl)c4)(C(F)(F)F)C3)ccc(C(=O)NC3C[S+]([O-])C3)c2o1` (stereo not drawn) [A28]: the “effect on mortality, feeding behavior” value in experiment [1], in experiment [2] and in experiment [3] was “little or no effect” in each case.
Turning to `Cc1nc2c(C3=NOC(c4cc(Cl)cc(Cl)c4)(C(F)(F)F)C3)ccc(C(=O)NC3CSC3)c2o1` (stereo not drawn) [A29], the “effect on mortality, feeding behavior” value in experiment [1], in experiment [2] and in experiment [3] was “little or no effect” each time.
Consider `Cc1cc(C2=NOC(c3cc(Cl)cc(Cl)c3)(C(F)(F)F)C2O)ccc1C(=O)NC1C[S+]([O-])C1` (stereo not drawn) [A53], for which the pest or weed control at 200 ppm in experiment [1] and in experiment [3] was at least 80% throughout.
With `Cc1cc(C2=NOC(c3cc(Cl)cc(Cl)c3)(C(F)(F)F)C2O)ccc1C(=O)NC1CSC1` (stereo not drawn) [A54], the pest or weed control at 200 ppm in experiment [1] and in experiment [3] was at least 80% in each case.
Turning to `Cc1cc(C2=NOC(c3cc(Cl)cc(Cl)c3)(C(F)(F)F)/C2=N/O)ccc1C(=O)NC1CS(=O)(=O)C1` (stereo not drawn) [A55], the pest or weed control at 200 ppm in experiment [2] and in experiment [3] was at least 80% in each case.
